Measurements as given in ChEMBL document CHEMBL1139642, “Design, synthesis, and evaluation of dioxane-based antiviral agents targeted against the Sindbis virus capsid protein” (Bioorg Med Chem Lett, 2005).

Columns and labels:
[1] = test system: Sindbis virus; experiment: Effective concentration resulting in a 50% reduction in virus production in BHK cells; type: functional, organism-based
[2] = Cytotoxic concentration for 50% growth inhibition of uninfected BHK cells; type: cell-based, Mesocricetus auratus; settings: hamster

| EC50 [1] [µM] | Compound | CC50 [2] [µM] |
| --- | --- | --- |
| > 100 | O=C(C[C@@H]1COCCO1)C[C@@H]1COCCO1 | > 1000 |
| > 100 | c1ccc(CCCC[C@@H]2COCCO2)cc1 | 600 |
| 40 | C(C[C@@H]1COCCO1)C[C@@H]1COCCO1 | > 1000 |
| 1 | OC[C@@H]1COCCO1 | > 1000 |
